ChEMBL document CHEMBL1158009, “Paclitaxel analogues from Taxus x media cv. Hicksii” (1999)

Experiments:
MCF7 = test: Cytotoxicity against human MCF7 cells assessed as ratio of ED50 for drug to ED50 for paclitaxel; type: functional
Tubulin = test: Inhibition of microtubule assembly = assessed as ratio of ED50 for drug to ED50 for paclitaxel
MCF7R = test: Cytotoxicity against human MCF7R cells assessed as ratio of ED50 for drug to ED50 for paclitaxel; type: functional

| Compound | Ratio ED50 (MCF7) | Ratio ED50 (Tubulin) | Ratio ED50 (MCF7R) |
| --- | --- | --- | --- |
| CCC(C)C(=O)N[C@H](c1ccccc1)[C@@H](O)C(=O)O[C@H]1C[C@@]2(O)[C@@H](OC(=O)c3ccccc3)[C@@H]3[C@]4(OC(C)=O)CO[C@@H]4C[C@H](O)[C@@]3(C)C(=O)[C@H](OC(C)=O)C(=C1C)C2(C)C (some centres not stated) | >10 | 6.7 | – |
| CC(=O)O[C@H]1C(=O)[C@@]2(C)[C@H]([C@H](OC(=O)c3ccccc3)[C@]3(O)C[C@H](OC(=O)[C@H](O)[C@H](NC(=O)/C=C/c4ccccc4)c4ccccc4)C(C)=C1C3(C)C)[C@]1(OC(C)=O)CO[C@@H]1C[C@@H]2O | 1.3 | 1.2 | 1.2 |
| C/C=C(\C)C(=O)O[C@H]1[C@@H]2[C@]3(OC(C)=O)CO[C@@H]3C[C@H](O)[C@@]2(C)C(=O)[C@H](OC(C)=O)C2=C(C)[C@@H](OC(=O)[C@H](O)[C@H](NC(=O)c3ccccc3)c3ccccc3)C[C@]1(O)C2(C)C [ISOCEPHALOMANNINE] | 12 | 1.1 | – |
